13 compounds from ChEMBL document CHEMBL1131829, “Novel protein kinase C inhibitors: synthesis and PKC inhibition of beta-substituted polythiophene derivatives” (Bioorg Med Chem Lett, 1999) can be followed below.

For orientation: IC50 means the point on the concentration scale where inhibition reaches its midpoint. Low readings indicate inhibition by little substance, high ones a need for much substance.

For the assay, the target named is Protein kinase C (PKC). As to the kind of experiment: Inhibition of protein kinase C. It counts as protein assay, Rattus norvegicus.
Compound `OCc1csc(-c2ccc(-c3ccc(CO)s3)s2)c1` gave an IC50 of 0.0003 M.

`O=Cc1ccsc1` showed an IC50 of more than 0.004 M.

As to `O=Cc1csc(-c2ccc(C=O)s2)c1`, the IC50 amounted to 0.001 M.

Compound `OCc1ccsc1` gave a half-inhibitory concentration (IC50) of more than 0.004 M.

Compound `OCc1csc(-c2ccc(CO)s2)c1` showed an IC50 of more than 0.001 M.

`CN1CCN(CCCN2c3ccccc3Sc3ccc(C(F)(F)F)cc32)CC1` [TRIFLUOPERAZINE] registered a half-inhibitory concentration (IC50) of 0.0005 M.

As to `O=Cc1csc(-c2ccc(-c3cccs3)s2)c1`, the IC50 is 5e-06 M.

The compound `OCc1csc(-c2cccs2)c1` had an IC50 of more than 0.001 M.

`O=Cc1csc(-c2ccc(-c3ccc(C=O)s3)s2)c1`: the half-maximal inhibitory concentration (IC50) turned out to be 7e-07 M.

For `O=Cc1ccc(-c2ccc(-c3cc(CO)cs3)s2)s1`, the 50% inhibitory concentration (IC50) came out at 3e-07 M.

The compound `OCc1csc(-c2ccc(-c3cccs3)s2)c1` yielded a concentration for half-maximal inhibition (IC50) of 3e-06 M.

Turning to `O=Cc1csc(-c2cccs2)c1`, the IC50 was found to be 0.0005 M.

Take `O=Cc1csc(-c2ccc(-c3ccc(CO)s3)s2)c1`: the half-inhibitory concentration (IC50) was found to be 0.00003 M.
